In patent US12370183B2, “Compositions and methods for treating malaria” (Rutgers, The State University of New Jersey, priority 2020, dated 2025):
Read-outs that look alike come from different tables or passages of the source.

Experiments:
Format in all cases: cell-based
in vitro = details: human
Excerpt: (§1) The present invention relates to methods of treating malaria with tetrahydrobenzonaphtyridine carboxanilide (TBN) derivatives and related pyrrolinones and hydrolysis products thereof. These compounds are active against Plasmodium falciparum strains that are resistant to multiple drugs currently on the market. The present invention further relates to novel compounds and pharmaceutical compositions comprising such compounds. The compounds have been synthesized and tested for their potency in the 3D7 strain of Plasmodium falciparum. Their cytotoxicity was also tested in the BJ human fibroblast line. No compounds show significant cytotoxicity.
(§2) A high-throughput screen performed against the Plasmodium parasite. About 8,000 compounds were screened. Each hit was tested against resistant P. falciparum variants K1, V1S, D10DD, ATP4 1247, and C2B. Potency against these assays assured that the chemotype acts through a mechanism distinct from that of halofantrine, chloroquine, mefloquine, pyrimethamine, proguanil, atovaquone, and (+)SJ733. The toxicity of the compounds was also measured by testing their lethality against a BJ cell line (human fibroblasts). No TBNs were toxic. A structure activity investigation was performed in order to improve the EC50 of the TBNs to the single-digit nanomolar range, as well as to increase the water solubility.

[1] = tested on: resistant P. falciparum variant K1; assay: Potency against resistant P. falciparum variant K1 (EC50); details: Plasmodium falciparum, K1, read-out: K1 EC50 (μM)
Experimental: as §2
(§3) Substituents were installed at N−2 by using a variety of methods. Reductive alkylation (Abdel-Magid, A. F.; Mehrman, S. J. A Review on the Use of Sodium Triacetoxyborohydride in the Reductive Amination of Ketones and Aldehydes. Org. Process Res. Dev. 2006, 10 (5), 971-1031) was a dependable technique that produced over fifteen analogues. Conjugate additions and nucleophilic substitutions provided most of the others. A type of reductive alkylation that uses carboxylic acids instead of aldehydes (the Beller reduction) led to two analogues (Sorribes, I.; Junge, K.; Beller, M. Direct Catalytic N-Alkylation of Amines with Carboxylic Acids. J. Am. Chem. Soc. 2014, 136 (40), 14314-14319. Some of the compounds listed were synthesized through other means, or were derived from other TBNs. Compounds 66 and 128 were produced by the amidation of acids 132 and 133, which had the corresponding substitution already installed. TBNs 93, and 94 were produced from the Pfitzinger products formed from the condensation of isatin with (R)-1-(1-phenylethyl)piperidin-4-one (134) and (S)-1-(1-phenylethyl)piperidin-4-one (135), respectively.

[2] = tested on: 3D7 strain of Plasmodium falciparum; assay: Potency in the 3D7 strain of Plasmodium falciparum (EC50); details: for EC50: Plasmodium falciparum
Excerpt: as §1, §2, §3

[3] = 3D7, read-out: 3D7 Mean EC50 (μM)

SMILES	EC50 (in vitro)	EC50 [1]	EC50 [2, 3]	improvement of potency by oxidation of the TBN to the pyrrolinone ([2]; 183 versus corresponding TBN 147)	EC50 ([2]; 3D7)
COC(=O)CCN1CCc2nc3ccccc3c(C(=O)Nc3ccc(F)c(F)c3)c2C1 [Compound 109, Methyl 3-(10-((3,4-difluorophenyl)carbamoyl)-3,4-dihydrobenzo[b][1,6]naphthyridin-2(1H)-yl)propanoate]	> 23300 nM	0.487 µM	0.673 ± 0.107 µM	–	–
C=CCN1CCc2nc3ccccc3c(C(=O)Nc3ccc(F)c(F)c3)c2C1 [Compound 92, 2-Allyl-N-(3,4-difluorophenyl)-1,2,3,4-tetrahydrobenzo[b][1,6]naphthyridine-10-carboxamide]	> 23300 nM	0.0719 µM	0.128 ± 0.0238 µM	–	–
O=C1c2c3c(nc4cc(Cl)ccc24)CCN(CCc2ccccc2)C3N1c1ccc(Br)cc1 (stereo not shown) [Compound 175, 2-(4-Bromophenyl)-8-chloro-3-phenethyl-2a,3,4,5-tetrahydrobenzo[b]pyrrolo[4,3,2-de][1,6]naphthyridin-1(2H)-one]	15200 ± 8470 nM	–	< 0.00192 µM	–	–
CC(C)(C)OC(=O)N1CCc2nc3ccccc3c(C(=O)Nc3ccc(F)c(F)c3)c2C1 [Compound 87, tert-Butyl 10-((3,4-difluorophenyl)carbamoyl)-3,4-dihydrobenzo[b][1,6]naphthyridine-2(1H)-carboxylate]	> 23300 nM	–	1.67 ± 0.8 µM	–	–
O=C(Nc1cccc(Cl)c1)c1c2c(nc3cc(Cl)ccc13)CCN(CCc1ccccc1)C2 [Compound 167, 7-Chloro-N-(3-chlorophenyl)-2-phenethyl-1,2,3,4-tetrahydrobenzo[b][1,6]naphthyridine-10-carboxamide]	> 24000 nM	–	0.0216 ± 0.012 µM	–	–
O=C1c2c3c(nc4ccc(Cl)cc24)CCN(CCc2ccccc2)C3N1c1ccc(Cl)cc1 (stereo not shown) [Compound 181, 9-Chloro-2-(4-chlorophenyl)-3-phenethyl-2a,3,4,5-tetrahydrobenzo[b]pyrrolo[4,3,2-de][1,6]naphthyridin-1(2H)-one]	> 24000 nM	–	0.0126 ± 0.002 µM	–	–
COc1ccc(N2C(=O)c3c4c(nc5ccc(Cl)cc35)CCN(CCc3ccccc3)C42)cc1OC (stereo not shown) [Compound 185, 9-Chloro-2-(3,4-dimethoxyphenyl)-3-phenethyl-2a,3,4,5-tetrahydrobenzo[b]pyrrolo[4,3,2-de][1,6]naphthyridin-1(2H)-one]	> 24000 nM	–	0.049 ± 0.016 µM	–	–
CCOCCN1CCc2nc3ccccc3c3c2C1N(c1ccc(F)c(F)c1)C3=O (stereo not shown) [Compound 180, 2-(3,4-Difluorophenyl)-3-(2-ethoxyethyl)-2a,3,4,5-tetrahydrobenzo[b]pyrrolo[4,3,2-de][1,6]naphthyridin-1(2H)-one]	> 24000 nM	–	0.0087 ± 0.001 µM	–	–
O=C(Nc1ccc(Cl)cc1)c1c2c(nc3ccc(Cl)cc13)CCN(CCc1ccccc1)C2 [Compound 168, 8-Chloro-N-(4-chlorophenyl)-2-phenethyl-1,2,3,4-tetrahydrobenzo[b][1,6]naphthyridine-10-carboxamide]	> 24000 nM	–	< 0.0348 µM	–	–
COc1ccc(N2C(=O)c3c4c(nc5cc(Cl)ccc35)CCN(CCc3ccccc3)C42)cc1OC (stereo not shown) [Compound 178, 8-Chloro-2-(3,4-dimethoxyphenyl)-3-phenethyl-2a,3,4,5-tetrahydrobenzo[b]pyrrolo[4,3,2-de][1,6]naphthyridin-1(2H)-one]	9320 ± 6690 nM	–	0.00446 ± 0.002 µM	–	–
COc1ccc(NC(=O)c2c3c(nc4cc(Cl)ccc24)CCN(CCc2ccccc2)C3)cc1OC [Compound 166, 7-Chloro-N-(3,4-dimethoxyphenyl)-2-phenethyl-1,2,3,4-tetrahydrobenzo[b][1,6]naphthyridine-10-carboxamide]	> 24000 nM	–	< 0.0132 µM	–	–
CC(=O)O[C@H]1CO[C@H]2[C@@H]1OC[C@@H]2Oc1cccc(N2C(=O)c3c4c(nc5ccccc35)CCN(CCc3ccccc3)C42)c1 (stereo partly drawn) [Compound 183, (3S,3aR,6S,6aR)-6-(3-(1-Oxo-3-phenethyl-2a,3,4,5-tetrahydrobenzo[b]pyrrolo[4,3,2-de][1,6]naphthyridin-2(1H)-yl)phenoxy)hexahydrofuro[3,2-b]furan-3-yl Acetate]	> 24000 nM	–	0.0407 ± 0.012 µM	nearly a hundred-fold	0.0407 µM
